Measured values taken from US8557862B2, “Synergistic antimicrobial composition” (Dow Global Technologies LLC, priority 2009, dated 2013).

Tested on: oil field isolated anaerobic SRB consortium
Assay: Biocidal efficacy (MBC for complete bacteria kill) against sulfate reducing bacteria
Format: cell-based, Sulfate Reducing Bacteria (SRB)
Conditions: minimum tested biocide concentration for complete bacteria kill, alone or in the blend, 40° C., 24 hour, anaerobic salt solution, 10^6 to 10^7 CFU/mL
Method: Inside an anaerobic chamber (BACTRON III), a deaerated sterile salt solution (3.1183 g of NaCl, […] of NaHCO3, 47.70 mg of KCl, 72.00 mg of CaCl2, 54.49 mg of MgSO4, 172.28 mg of Na2SO4, 43.92 mg of Na2CO3 in 1 L water) was contaminated with an oil field isolated anaerobic SRB consortium at final bacterial concentrations of 10^6 to 10^7 CFU/mL. The aliquots of this contaminated water were then treated with glutaraldehyde and DXN, or the glutaraldehyde/DXN combination at different active concentration levels. After the mixtures were incubated at 40° C. for 24 hour, the biocidal efficacy was determined by minimum tested biocide concentration for complete bacteria kill in the aliquots (MBC). Table 1 summarizes the efficacy of each biocide and their blends, and the Synergy Index* of each combination.

| Compound | MBC (active ppm) DXN (DXN concentration) [active ppm] | MBC (active ppm) glut (glutaraldehyde concentration) [active ppm] |
| --- | --- | --- |
| CC(=O)OC1CC(C)OC(C)O1 (centres unmarked) [0:1, 2,6-dimethyl-1,3-dioxan-4-yl acetate] | 333.33 | – |
| O=CCCCC=O [1:0, glutaraldehyde] | – | 2.63 |
